In the supplement of paper PMC10307832:

Tests used:
Assay in all cases: relative viability (nuclei count vs DMSO), 5 days (fraction); higher = more cells survive
Everolimus + Trametinib = compound: CO[C@H]1C[C@@H]2CC[C@@H](C)[C@@](O)(O2)C(=O)C(=O)N2CCCC[C@H]2C(=O)O[C@H]([C@H](C)C[C@@H]2CC[C@@H](OCCO)[C@H](OC)C2)CC(=O)[C@H](C)/C=C(\C)[C@@H](O)[C@@H](OC)C(=O)[C@H](C)C[C@H](C)/C=C/C=C/C=C/1C [Everolimus] + CC(=O)Nc1cccc(-n2c(=O)n(C3CC3)c(=O)c3c(Nc4ccc(I)cc4F)n(C)c(=O)c(C)c32)c1 [Trametinib] (partner 0.02 µM)
Outline: (§1)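 The day after seeding in 1536-well plates, lung cancer cell lines were treated by pin tool with a single drug, or with a fixed anchor-drug dose together with five library-drug doses (not always all listed) in √10 steps. After 5 days, a combined fix-and-stain solution (final 0.05% Triton X-100, 1% formaldehyde, 1 ug/ml Hoechst) was added. Nuclei counted on 4× images gave relative viability as treated counts over vehicle counts, reported as the median of duplicate plates.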

Everolimus + Lapatinib = compound: CO[C@H]1C[C@@H]2CC[C@@H](C)[C@@](O)(O2)C(=O)C(=O)N2CCCC[C@H]2C(=O)O[C@H]([C@H](C)C[C@@H]2CC[C@@H](OCCO)[C@H](OC)C2)CC(=O)[C@H](C)/C=C(\C)[C@@H](O)[C@@H](OC)C(=O)[C@H](C)C[C@H](C)/C=C/C=C/C=C/1C [Everolimus] + CS(=O)(=O)CCNCc1ccc(-c2ccc3ncnc(Nc4ccc(OCc5cccc(F)c5)c(Cl)c4)c3c2)o1 [Lapatinib] (partner 2 µM)
Outline: as §1

Everolimus + Phenformin = compound: CO[C@H]1C[C@@H]2CC[C@@H](C)[C@@](O)(O2)C(=O)C(=O)N2CCCC[C@H]2C(=O)O[C@H]([C@H](C)C[C@@H]2CC[C@@H](OCCO)[C@H](OC)C2)CC(=O)[C@H](C)/C=C(\C)[C@@H](O)[C@@H](OC)C(=O)[C@H](C)C[C@H](C)/C=C/C=C/C=C/1C [Everolimus] + N=C(N)NC(=N)NCCc1ccccc1 [Phenformin] (partner 250 µM)
Outline: as §1

Everolimus + Olaparib = compound: CO[C@H]1C[C@@H]2CC[C@@H](C)[C@@](O)(O2)C(=O)C(=O)N2CCCC[C@H]2C(=O)O[C@H]([C@H](C)C[C@@H]2CC[C@@H](OCCO)[C@H](OC)C2)CC(=O)[C@H](C)/C=C(\C)[C@@H](O)[C@@H](OC)C(=O)[C@H](C)C[C@H](C)/C=C/C=C/C=C/1C [Everolimus] + O=C(c1cc(Cc2n[nH]c(=O)c3ccccc23)ccc1F)N1CCN(C(=O)C2CC2)CC1 [Olaparib] (partner 8 µM)
Outline: as §1

| Cell Line | relative viability (Everolimus + Trametinib; first compound 0.01 µM) | relative viability (Everolimus + Trametinib; first compound 0.03162 µM) | relative viability (Everolimus + Trametinib; first compound 0.1 µM) | relative viability (Everolimus + Trametinib; first compound 0.3162 µM) | relative viability (Everolimus + Trametinib; first compound 1 µM) | relative viability (Everolimus + Lapatinib; first compound 0.01 µM) | relative viability (Everolimus + Lapatinib; first compound 0.03162 µM) | relative viability (Everolimus + Lapatinib; first compound 0.1 µM) | relative viability (Everolimus + Lapatinib; first compound 0.3162 µM) | relative viability (Everolimus + Lapatinib; first compound 1 µM) | relative viability (Everolimus + Phenformin; first compound 0.01 µM) | relative viability (Everolimus + Phenformin; first compound 0.03162 µM) | relative viability (Everolimus + Phenformin; first compound 0.1 µM) | relative viability (Everolimus + Phenformin; first compound 0.3162 µM) | relative viability (Everolimus + Phenformin; first compound 1 µM) | relative viability (Everolimus + Olaparib; first compound 0.01 µM) | relative viability (Everolimus + Olaparib; first compound 0.03162 µM) | relative viability (Everolimus + Olaparib; first compound 0.1 µM) | relative viability (Everolimus + Olaparib; first compound 0.3162 µM) | relative viability (Everolimus + Olaparib; first compound 1 µM) |
| --- | --- | --- | --- | --- | --- | --- | --- | --- | --- | --- | --- | --- | --- | --- | --- | --- | --- | --- | --- | --- |
| NCI-H1792 | 0.196 | 0.251 | 0.215 | 0.164 | 0.16 | 0.637 | 0.656 | 0.679 | 0.593 | 0.734 | 0.154 | 0.129 | 0.162 | 0.129 | 0.0809 | 0.21 | 0.155 | 0.167 | 0.113 | 0.119 |
| NCI-H1355 | 0.244 | 0.24 | 0.215 | 0.263 | 0.244 | 0.471 | 0.44 | 0.363 | 0.53 | 0.436 | 0.394 | 0.364 | 0.335 | 0.332 | 0.345 | 0.486 | 0.514 | 0.426 | 0.536 | 0.48 |
| SW 1573 | 0.3 | 0.311 | 0.291 | 0.303 | 0.281 | 0.649 | 0.705 | 0.627 | 0.686 | 0.572 | 0.205 | 0.238 | 0.175 | 0.182 | 0.12 | 0.264 | 0.384 | 0.314 | 0.268 | 0.3 |
| NCI-H2347 | 0.266 | 0.337 | 0.244 | 0.261 | 0.286 | 0.813 | 1.07 | 0.663 | 0.868 | 0.811 | 0.388 | 0.353 | 0.351 | 0.384 | 0.26 | 0.565 | 0.54 | 0.527 | 0.525 | 0.505 |
| LCLC-97TM1 | 0.153 | 0.164 | 0.126 | 0.155 | 0.147 | 0.611 | 0.869 | 0.759 | 0.817 | 0.852 | 0.46 | 0.513 | 0.483 | 0.353 | 0.437 | 0.356 | 0.317 | 0.291 | 0.269 | 0.434 |
| EMC-BAC-2 | 0.502 | 0.605 | 0.536 | – | 0.503 | 0.675 | 0.563 | 0.49 | 0.571 | 0.517 | 0.377 | 0.364 | 0.322 | 0.383 | 0.422 | 0.455 | 0.43 | 0.385 | 0.383 | 0.347 |
| NCI-H1975 | 0.389 | 0.373 | 0.287 | 0.276 | 0.226 | 0.788 | 0.669 | 0.669 | 0.762 | 0.676 | 0.378 | 0.383 | 0.387 | 0.367 | 0.323 | 0.752 | 0.654 | 0.697 | 0.691 | 0.655 |
